# Test results: ChEMBL document CHEMBL1275492, “In vitro activity of ceftobiprole against pathogens from two phase 3 clinical trials of complicated skin and skin structure infections” (2008)
# Experiments:
# Assay type in all cases: functional
# [1] = test system: Streptococcus constellatus; assay: Antibacterial activity against Streptococcus constellatus obtained from complicated skin and skin structure infections by agar dilution method
# Gemella = assay: Antibacterial activity against Gemella spp. obtained from complicated skin and skin structure infections by agar dilution method
# Enterococcus faecium = assay: Antibacterial activity against Enterococcus faecium obtained from complicated skin and skin structure infections by agar dilution method
# [2] = Antibacterial activity against Streptococcus sp. 'group G' obtained from complicated skin and skin structure infections by agar dilution method
# Bacillus = assay: Antibacterial activity against Bacillus spp. obtained from complicated skin and skin structure infections by agar dilution method
# Enterococcus faecalis = assay: Antibacterial activity against Enterococcus faecalis obtained from complicated skin and skin structure infections by agar dilution method
# [3] = test system: Staphylococcus intermedius; assay: Antibacterial activity against Staphylococcus intermedius obtained from complicated skin and skin structure infections by agar dilution method
# Aerococcus viridans = assay: Antibacterial activity against Aerococcus viridans obtained from complicated skin and skin structure infections by agar dilution method
# Streptococcus mitis = assay: Antibacterial activity against Streptococcus mitis obtained from complicated skin and skin structure infections by agar dilution method
# Streptococcus pyogenes = assay: Antibacterial activity against Streptococcus pyogenes obtained from complicated skin and skin structure infections by agar dilution method
# Micrococcus = assay: Antibacterial activity against Micrococcus spp. obtained from complicated skin and skin structure infections by agar dilution method
# Gemella morbillorum = assay: Antibacterial activity against Gemella morbillorum obtained from complicated skin and skin structure infections […]
# [4] = Antibacterial activity against Streptococcus sp. 'group C' obtained from complicated skin and skin structure infections by agar dilution method
# Streptococcus agalactiae = assay: Antibacterial activity against Streptococcus agalactiae obtained from complicated skin and skin structure infections by agar dilution method
# Lactococcus lactis = assay: Antibacterial activity against Lactococcus lactis obtained from complicated skin and skin structure infections by agar dilution method
# Klebsiella oxytoca = assay: Antibacterial activity against Klebsiella oxytoca obtained from complicated skin and skin structure infections by agar dilution method
# Citrobacter freundii = assay: Antibacterial activity against Citrobacter freundii obtained from complicated skin and skin structure infections by agar dilution method
# Enterobacter cloacae = assay: Antibacterial activity against Enterobacter cloacae obtained from complicated skin and skin structure infections by agar dilution method
# Morganella morganii = assay: Antibacterial activity against Morganella morganii obtained from complicated skin and skin structure infections by agar dilution method
# Proteus penneri = assay: Antibacterial activity against Proteus penneri obtained from complicated skin and skin structure infections by agar dilution method
# Acinetobacter baumannii = assay: Antibacterial activity against Acinetobacter baumannii obtained from complicated skin and skin structure infections by agar dilution method
# Providencia stuartii = assay: Antibacterial activity against Providencia stuartii obtained from complicated skin and skin structure infections by agar dilution method
# Citrobacter braakii = assay: Antibacterial activity against Citrobacter braakii obtained from complicated skin and skin structure infections by agar dilution method
# Klebsiella pneumoniae = assay: Antibacterial activity against Klebsiella pneumoniae obtained from complicated skin and skin structure infections by agar dilution method
# Enterobacter amnigenus = assay: Antibacterial activity against Enterobacter amnigenus obtained from complicated skin and skin structure infections by agar dilution method; conditions: Lelliottia amnigena
# Salmonella = assay: Antibacterial activity against Salmonella spp. obtained from complicated skin and skin structure infections by agar dilution method
# Pseudomonas fluorescens = assay: Antibacterial activity against Pseudomonas fluorescens obtained from complicated skin and skin structure infections by agar dilution method
# Escherichia coli = assay: Antibacterial activity against Escherichia coli obtained from complicated skin and skin structure infections by agar dilution method
# Proteus vulgaris = assay: Antibacterial activity against Proteus vulgaris obtained from complicated skin and skin structure infections by agar dilution method
# Pseudomonas aeruginosa = assay: Antibacterial activity against Pseudomonas aeruginosa obtained from complicated skin and skin structure infections by agar dilution method
# Klebsiella aerogenes = assay: Antibacterial activity against Enterobacter aerogenes obtained from complicated skin and skin structure infections by agar dilution method
# Proteus mirabilis = assay: Antibacterial activity against Proteus mirabilis obtained from complicated skin and skin structure infections by agar dilution method
# Serratia marcescens = assay: Antibacterial activity against Serratia marcescens obtained from complicated skin and skin structure infections by agar dilution method
# [5] = test system: Stenotrophomonas maltophilia; assay: Antibacterial activity against Stenotrophomonas maltophilia obtained from complicated skin and skin structure infections by agar dilution method
structure (smiles),measurement,setting,value
CC1(C)S[C@@H]2[C@H](NC(=O)Cc3ccccc3)C(=O)N2[C@H]1C(=O)O [PENICILLIN G],MIC,[1],≤ 0.03 µg/mL
same,MIC50,[1],≤ 0.03 µg/mL
same,MIC90,[1],0.12 µg/mL
same,MIC50,Gemella,≤ 0.03 µg/mL
same,MIC90,Gemella,1 µg/mL
same,MIC,Enterococcus faecium,> 4 µg/mL
same,MIC50,Enterococcus faecium,> 4 µg/mL
same,MIC,[2],≤ 0.03 µg/mL
same,MIC50,[2],≤ 0.03 µg/mL
same,MIC90,[2],≤ 0.03 µg/mL
same,MIC50,Bacillus,≤ 0.03 µg/mL
same,MIC90,Bacillus,1 µg/mL
same,MIC,Enterococcus faecalis,2 µg/mL
same,MIC50,Enterococcus faecalis,2 µg/mL
same,MIC90,Enterococcus faecalis,4 µg/mL
same,MIC50,[3],0.5 µg/mL
same,MIC90,[3],0.5 µg/mL
same,MIC50,Aerococcus viridans,≤ 0.03 µg/mL
same,MIC90,Aerococcus viridans,1 µg/mL
same,MIC50,Streptococcus mitis,0.5 µg/mL
same,MIC90,Streptococcus mitis,0.5 µg/mL
same,MIC,Streptococcus pyogenes,≤ 0.03 µg/mL
same,MIC50,Streptococcus pyogenes,≤ 0.03 µg/mL
same,MIC90,Streptococcus pyogenes,≤ 0.03 µg/mL
same,MIC50,Micrococcus,≤ 0.03 µg/mL
same,MIC90,Micrococcus,1 µg/mL
same,MIC50,Gemella morbillorum,≤ 0.03 µg/mL
same,MIC90,Gemella morbillorum,1 µg/mL
same,MIC,[4],≤ 0.03 µg/mL
same,MIC50,[4],≤ 0.03 µg/mL
same,MIC90,[4],0.06 µg/mL
same,MIC50,Streptococcus agalactiae,0.06 µg/mL
same,MIC90,Streptococcus agalactiae,0.06 µg/mL
same,MIC50,Lactococcus lactis,≤ 0.03 µg/mL
same,MIC90,Lactococcus lactis,1 µg/mL
CC(C)(O/N=C(\C(=O)N[C@@H]1C(=O)N2C(C(=O)[O-])=C(C[n+]3ccccc3)CS[C@H]12)c1csc(N)n1)C(=O)O [CEFTAZIDIME],MIC50,[1],2 µg/mL
same,MIC90,[1],4 µg/mL
same,MIC50,Klebsiella oxytoca,0.12 µg/mL
same,MIC90,Klebsiella oxytoca,16 µg/mL
same,MIC50,Gemella,1 µg/mL
same,MIC90,Gemella,64 µg/mL
same,MIC50,Citrobacter freundii,0.12 µg/mL
same,MIC90,Citrobacter freundii,16 µg/mL
same,MIC50,[2],0.25 µg/mL
same,MIC90,[2],0.25 µg/mL
same,MIC50,Enterobacter cloacae,0.25 µg/mL
same,MIC90,Enterobacter cloacae,64 µg/mL
same,MIC50,Morganella morganii,≤ 0.12 µg/mL
same,MIC90,Morganella morganii,8 µg/mL
same,MIC50,Proteus penneri,0.12 µg/mL
same,MIC90,Proteus penneri,16 µg/mL
same,MIC50,Acinetobacter baumannii,> 16 µg/mL
same,MIC90,Acinetobacter baumannii,> 128 µg/mL
same,MIC50,Providencia stuartii,0.12 µg/mL
same,MIC90,Providencia stuartii,16 µg/mL
same,MIC50,Citrobacter braakii,0.12 µg/mL
same,MIC90,Citrobacter braakii,16 µg/mL
same,MIC50,Bacillus,1 µg/mL
same,MIC90,Bacillus,64 µg/mL
same,MIC50,Klebsiella pneumoniae,0.12 µg/mL
same,MIC90,Klebsiella pneumoniae,64 µg/mL
same,MIC50,Enterococcus faecalis,> 128 µg/mL
same,MIC90,Enterococcus faecalis,> 128 µg/mL
same,MIC50,Enterobacter amnigenus,0.12 µg/mL
same,MIC90,Enterobacter amnigenus,16 µg/mL
same,MIC50,[3],0.12 µg/mL
same,MIC90,[3],0.25 µg/mL
same,MIC50,Salmonella,0.12 µg/mL
same,MIC90,Salmonella,16 µg/mL
same,MIC50,Pseudomonas fluorescens,> 16 µg/mL
same,MIC90,Pseudomonas fluorescens,> 128 µg/mL
same,MIC50,Aerococcus viridans,1 µg/mL
same,MIC90,Aerococcus viridans,64 µg/mL
same,MIC50,Streptococcus mitis,0.12 µg/mL
same,MIC90,Streptococcus mitis,0.25 µg/mL
same,MIC50,Streptococcus pyogenes,0.12 µg/mL
same,MIC90,Streptococcus pyogenes,0.12 µg/mL
same,MIC50,Micrococcus,1 µg/mL
same,MIC90,Micrococcus,64 µg/mL
same,MIC50,Gemella morbillorum,1 µg/mL
same,MIC90,Gemella morbillorum,64 µg/mL
same,MIC50,Escherichia coli,0.12 µg/mL
same,MIC90,Escherichia coli,0.25 µg/mL
same,MIC50,[4],0.5 µg/mL
same,MIC90,[4],4 µg/mL
same,MIC50,Proteus vulgaris,0.12 µg/mL
same,MIC90,Proteus vulgaris,16 µg/mL
same,MIC50,Pseudomonas aeruginosa,2 µg/mL
same,MIC90,Pseudomonas aeruginosa,> 128 µg/mL
same,MIC50,Klebsiella aerogenes,0.12 µg/mL
same,MIC90,Klebsiella aerogenes,16 µg/mL
same,MIC50,Proteus mirabilis,0.06 µg/mL
same,MIC90,Proteus mirabilis,2 µg/mL
same,MIC50,Serratia marcescens,0.12 µg/mL
same,MIC90,Serratia marcescens,16 µg/mL
same,MIC50,[5],> 16 µg/mL
same,MIC90,[5],> 128 µg/mL
same,MIC50,Streptococcus agalactiae,0.5 µg/mL
same,MIC90,Streptococcus agalactiae,1 µg/mL
same,MIC50,Lactococcus lactis,1 µg/mL
same,MIC90,Lactococcus lactis,64 µg/mL
C[C@@H](O)[C@H]1C(=O)N2C(C(=O)O)=C(S[C@@H]3CN[C@H](C(=O)N(C)C)C3)[C@H](C)[C@H]12 [MEROPENEM],MIC50,Klebsiella oxytoca,0.03 µg/mL
same,MIC90,Klebsiella oxytoca,≤ 0.12 µg/mL
same,MIC50,Citrobacter freundii,0.03 µg/mL
same,MIC90,Citrobacter freundii,≤ 0.12 µg/mL
same,MIC50,Enterobacter cloacae,0.03 µg/mL
same,MIC90,Enterobacter cloacae,≤ 0.12 µg/mL
same,MIC50,Morganella morganii,≤ 0.12 µg/mL
same,MIC90,Morganella morganii,0.12 µg/mL
same,MIC50,Proteus penneri,0.03 µg/mL
same,MIC90,Proteus penneri,≤ 0.12 µg/mL
same,MIC50,Acinetobacter baumannii,2 µg/mL
same,MIC90,Acinetobacter baumannii,> 32 µg/mL
same,MIC50,Providencia stuartii,0.03 µg/mL
same,MIC90,Providencia stuartii,≤ 0.12 µg/mL
same,MIC50,Citrobacter braakii,0.03 µg/mL
same,MIC90,Citrobacter braakii,≤ 0.12 µg/mL
same,MIC50,Klebsiella pneumoniae,0.03 µg/mL
same,MIC90,Klebsiella pneumoniae,≤ 0.12 µg/mL
same,MIC50,Enterobacter amnigenus,0.03 µg/mL
same,MIC90,Enterobacter amnigenus,≤ 0.12 µg/mL
same,MIC50,Salmonella,0.03 µg/mL
same,MIC90,Salmonella,≤ 0.12 µg/mL
same,MIC50,Pseudomonas fluorescens,2 µg/mL
same,MIC90,Pseudomonas fluorescens,> 32 µg/mL
same,MIC,Escherichia coli,0.015 µg/mL
same,MIC50,Escherichia coli,0.015 µg/mL
same,MIC90,Escherichia coli,≤ 0.12 µg/mL
same,MIC50,Proteus vulgaris,0.03 µg/mL
same,MIC90,Proteus vulgaris,≤ 0.12 µg/mL
same,MIC50,Pseudomonas aeruginosa,4 µg/mL
same,MIC90,Pseudomonas aeruginosa,8 µg/mL
same,MIC50,Klebsiella aerogenes,0.03 µg/mL
same,MIC90,Klebsiella aerogenes,≤ 0.12 µg/mL
same,MIC50,Proteus mirabilis,0.06 µg/mL
same,MIC90,Proteus mirabilis,≤ 0.12 µg/mL
same,MIC50,Serratia marcescens,0.03 µg/mL
same,MIC90,Serratia marcescens,≤ 0.12 µg/mL
same,MIC50,[5],2 µg/mL
same,MIC90,[5],> 32 µg/mL
NCC[C@H](O)C(=O)N[C@@H]1C[C@H](N)[C@@H](O[C@H]2O[C@H](CN)[C@@H](O)[C@H](O)[C@H]2O)[C@H](O)[C@H]1O[C@H]1O[C@H](CO)[C@@H](O)[C@H](N)[C@H]1O [AMIKACIN],MIC50,Klebsiella oxytoca,2 µg/mL
same,MIC90,Klebsiella oxytoca,8 µg/mL
same,MIC50,Citrobacter freundii,2 µg/mL
same,MIC90,Citrobacter freundii,8 µg/mL
same,MIC50,Enterobacter cloacae,2 µg/mL
same,MIC90,Enterobacter cloacae,8 µg/mL
same,MIC50,Morganella morganii,2 µg/mL
same,MIC90,Morganella morganii,4 µg/mL
same,MIC50,Proteus penneri,2 µg/mL
same,MIC90,Proteus penneri,8 µg/mL
same,MIC50,Acinetobacter baumannii,16 µg/mL
same,MIC90,Acinetobacter baumannii,> 128 µg/mL
same,MIC50,Providencia stuartii,2 µg/mL
same,MIC90,Providencia stuartii,8 µg/mL
same,MIC50,Citrobacter braakii,2 µg/mL
same,MIC90,Citrobacter braakii,8 µg/mL
same,MIC,Klebsiella pneumoniae,1 µg/mL
same,MIC50,Klebsiella pneumoniae,1 µg/mL
same,MIC90,Klebsiella pneumoniae,64 µg/mL
same,MIC50,Enterobacter amnigenus,2 µg/mL
same,MIC90,Enterobacter amnigenus,8 µg/mL
same,MIC50,Salmonella,2 µg/mL
same,MIC90,Salmonella,8 µg/mL
same,MIC50,Pseudomonas fluorescens,16 µg/mL
same,MIC90,Pseudomonas fluorescens,> 128 µg/mL
same,MIC50,Escherichia coli,2 µg/mL
same,MIC90,Escherichia coli,4 µg/mL
same,MIC50,Proteus vulgaris,2 µg/mL
same,MIC90,Proteus vulgaris,8 µg/mL
same,MIC50,Pseudomonas aeruginosa,8 µg/mL
same,MIC90,Pseudomonas aeruginosa,64 µg/mL
same,MIC50,Klebsiella aerogenes,2 µg/mL
same,MIC90,Klebsiella aerogenes,8 µg/mL
same,MIC50,Proteus mirabilis,4 µg/mL
same,MIC90,Proteus mirabilis,16 µg/mL
same,MIC50,Serratia marcescens,2 µg/mL
same,MIC90,Serratia marcescens,8 µg/mL
same,MIC50,[5],16 µg/mL
same,MIC90,[5],> 128 µg/mL
